The structures appear in SMILES notation.

The assay deals with T1, Ephrin type-B receptor 4 (Homo sapiens, UniProt P54760).
T1 sequence (P54760 whole entry): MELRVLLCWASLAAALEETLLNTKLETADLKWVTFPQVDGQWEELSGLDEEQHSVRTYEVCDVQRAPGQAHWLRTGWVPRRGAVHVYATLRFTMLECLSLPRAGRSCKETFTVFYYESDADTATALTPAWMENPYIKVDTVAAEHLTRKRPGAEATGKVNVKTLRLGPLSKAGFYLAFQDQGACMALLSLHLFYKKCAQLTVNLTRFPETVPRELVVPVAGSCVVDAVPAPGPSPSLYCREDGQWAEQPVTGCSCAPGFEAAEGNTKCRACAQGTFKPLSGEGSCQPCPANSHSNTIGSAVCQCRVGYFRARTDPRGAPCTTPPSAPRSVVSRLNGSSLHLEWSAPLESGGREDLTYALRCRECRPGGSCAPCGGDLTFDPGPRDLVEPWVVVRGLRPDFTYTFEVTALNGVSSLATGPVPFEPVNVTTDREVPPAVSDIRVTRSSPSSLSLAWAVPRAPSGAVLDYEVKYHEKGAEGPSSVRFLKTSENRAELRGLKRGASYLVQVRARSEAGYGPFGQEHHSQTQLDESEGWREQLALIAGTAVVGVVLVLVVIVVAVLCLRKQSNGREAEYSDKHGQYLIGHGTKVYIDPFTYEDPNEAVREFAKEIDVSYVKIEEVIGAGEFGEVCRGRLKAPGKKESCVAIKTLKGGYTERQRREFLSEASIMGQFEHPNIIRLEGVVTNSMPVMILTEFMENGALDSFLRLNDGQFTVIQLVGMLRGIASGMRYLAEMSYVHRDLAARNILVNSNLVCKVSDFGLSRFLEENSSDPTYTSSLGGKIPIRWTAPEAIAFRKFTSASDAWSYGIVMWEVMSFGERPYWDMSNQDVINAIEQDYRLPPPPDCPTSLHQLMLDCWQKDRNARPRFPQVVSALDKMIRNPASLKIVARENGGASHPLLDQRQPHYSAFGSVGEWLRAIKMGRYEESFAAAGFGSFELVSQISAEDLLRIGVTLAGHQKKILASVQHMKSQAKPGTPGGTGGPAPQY
The experiment in a line: blockers of EphB4 ligand binding – biochemical, TNYL-RAW peptide displacement, dose response (AID 835).
Turning to `O=C(Nc1ccc2c(c1)OCO2)C1CC(c2ccc(F)cc2)=NO1` (stereo not given) [MLS000520439], the IC50 (commonly the concentration needed to halve the response being measured) was more than 79.4 µM. Consider `CCn1c(CSc2nnc(-c3cccnc3)n2-c2ccccc2C)nc2cc(C(=O)O)ccc21` [SMR000067019], for which the IC50 came to 11.1 µM.

In turn, `CCOc1cccc(-n2c(O)cc(=O)[nH]c2=O)c1` showed a half-maximal inhibitory concentration (IC50) of more than 79.4 µM. Compound `Cc1[nH]c2ccccc2c1/C=C1\N=C(c2ccc(C(F)(F)F)cc2)OC1=O` [SMR000152363] displayed an IC50 of more than 79.4 µM. In turn, `Cn1cnnc1SCC(=O)Nc1ccc2nc(SCc3cccc4ccccc34)sc2c1` [2-[(4-methyl-1,2,4-triazol-3-yl)sulfanyl]-N-[2-(naphthalen-1-ylmethylsulfanyl)-1,3-benzothiazol-6-yl]acetamide] showed a half-maximal inhibitory concentration (IC50) of more than 79.4 µM. The compound `Cc1c(NC(=O)COC(=O)C(c2ccc(Cl)cc2)C(C)C)c(=O)n(-c2ccccc2)n1C` (stereo not given) [2-(4-chlorophenyl)-3-methyl-butyric acid [2-keto-2-[(3-keto-1,5-dimethyl-2-phenyl-3-pyrazolin-4-yl)amino]ethyl] ester] returned a half-inhibitory concentration (IC50) of more than 79.4 µM.

Consider `COCCn1c(C)cc(C(=O)COc2nc3ccccc3nc2C)c1C` [1-[1-(2-methoxyethyl)-2,5-dimethyl-3-pyrrolyl]-2-[(3-methyl-2-quinoxalinyl)oxy]ethanone], for which the IC50 was more than 79.4 µM. Under `COc1cccc(C(C#N)N2CCOCC2)c1` (stereo not given) [2-(3-methoxyphenyl)-2-(4-morpholinyl)acetonitrile] stands more than 79.4 µM. Compound `CCOc1ccc(NC(=O)C(C)Oc2ccccc2C(=O)Nc2ccc(C)c(Cl)c2)cc1` (stereo not given) [MLS000581136] came in with a 50% inhibitory concentration (IC50) of more than 79.4 µM.

In turn, `O=C(CC(O)(c1ccccc1)C(F)(F)F)c1cccs1` (stereo not given) [4,4,4-trifluoro-3-hydroxy-3-phenyl-1-(2-thienyl)-1-butanone] had a half-maximal inhibitory concentration (IC50) of more than 79.4 µM.

Turning to `Cc1c2cc(O)c(=O)cc-2oc2cc(O)c(O)cc12` [2,6,7-Trihydroxy-9-methyl-xanthen-3-one], the IC50 was 3.6 µM. Take `CC(O)c1cccc(NC(=O)CCC(=O)O)c1` (stereo not given) [4-[3-(1-hydroxyethyl)anilino]-4-keto-butyric acid]: the IC50 was more than 79.4 µM.

Take `CCN1C(=O)C(=CNc2ccc(N3CCOCC3)cc2)C(=O)N(CC)C1=S`: the concentration for half-maximal inhibition (IC50) is more than 79.4 µM. Turning to `CCOc1cc(N2CCOCC2)c(OCC)cc1NC(=O)COc1cccc2cccnc12` [MLS000060380], the IC50 is more than 79.4 µM.

Take `Cn1c(=O)c(NCCc2ccccc2)c2c3c(cccc31)C(=O)c1ccccc1-2` [3-Methyl-1-phenethylamino-3H-naphtho[1,2,3-de]quinoline-2,7-dione]: the IC50 was determined as 1 µM. As for `O=C(COC(=O)C(Cc1ccccc1)NC(=O)c1ccco1)NC1CC1` (stereo not given) [2-(2-furoylamino)-3-phenyl-propionic acid [2-(cyclopropylamino)-2-keto-ethyl] ester], the IC50 is more than 79.4 µM. In the case of `CCOC(=O)c1cnc(Nc2nc3ccccc3o2)nc1CN1CCN(C)CC1` [2-(1,3-benzoxazol-2-ylamino)-4-[(4-methyl-1-piperazinyl)methyl]-5-pyrimidinecarboxylic acid ethyl ester], the IC50 was more than 79.4 µM.

Compound `CC(=O)c1ccc(N2CCN(C(=O)c3ccc(Br)cc3)CC2)c(F)c1` [1-[4-[4-(4-bromobenzoyl)piperazin-1-yl]-3-fluorophenyl]ethanone] returned an IC50 of more than 79.4 µM. Under `COCCCNc1c(O)nc2cccc3c2c1-c1ccccc1C3=O` [SMR000017250] stands 5.3 µM; under `CN(C(=O)N1CCN(c2ccccn2)CC1)c1ccccc1` [MLS000534907], more than 79.4 µM. In the case of `CCOC(=O)c1ccc(NC(=S)NCC(O)c2ccccc2)cc1` (stereo not given) [4-[(2-hydroxy-2-phenyl-ethyl)thiocarbamoylamino]benzoic acid ethyl ester], the IC50 was more than 79.4 µM. Regarding `CCC1CCCCN1C(=O)Nc1cccc(NC(=O)N2CCCCC2CC)c1` (stereo not given) [2-ethyl-N-[3-[(2-ethylpiperidin-1-yl)carbonylamino]phenyl]piperidine-1-carboxamide], the IC50 is more than 79.4 µM. In the case of `Clc1cccc(CN=Nc2ncnc3ccccc23)c1` [3-chlorobenzenecarbaldehyde N-(4-quinazolinyl)hydrazone], the concentration for half-maximal inhibition (IC50) was more than 79.4 µM. Under `Oc1ccccc1C=Nn1c(-c2cccs2)n[nH]c1=S` [SMR000168763] stands more than 79.4 µM. With `CSc1cccc(-n2c(C)cc(C(N)=O)c2C)c1` [2,5-dimethyl-1-(3-methylsulfanylphenyl)pyrrole-3-carboxamide], the IC50 was more than 79.4 µM. Compound `O=C(O)CCC(=O)N1CCN(c2nc(-c3ccccc3Cl)c3cc(Br)ccc3n2)CC1` [4-[4-[6-bromanyl-4-(2-chlorophenyl)quinazolin-2-yl]piperazin-1-yl]-4-oxidanylidene-butanoic acid] yielded an IC50 of more than 79.4 µM. For `CC(C)CCn1c(SCCN2CCOCC2)nc2c1c(=O)[nH]c(=O)n2C`, the IC50 is more than 79.4 µM. The compound `Cc1onc(-c2ccccc2)c1C(=O)Nc1ccc(S(=O)(=O)NC2=NCCCCC2)cc1` [5-methyl-3-phenyl-N-[4-(3,4,5,6-tetrahydro-2H-azepin-7-ylsulfamoyl)phenyl]-1,2-oxazole-4-carboxamide] came in with an IC50 of more than 79.4 µM. Compound `Cc1cccc(NC(=O)CSc2nnc(-c3ccc(S(=O)(=O)N4CCCC4)cc3)o2)c1` [2-{5-[4-(Pyrrolidine-1-sulfonyl)-phenyl]-[1,3,4]oxadiazol-2-ylsulfanyl}-N-m-tolyl-acetamide] yielded a half-inhibitory concentration (IC50) of more than 79.4 µM. Then `Cc1cc(=O)n(CC(C)C)c(O)c1C#N` [2-hydroxy-1-isobutyl-4-methyl-6-oxo-1,6-dihydro-3-pyridinecarbonitrile], with more than 79.4 µM; and `O=C(CN(Cc1cccs1)C(=O)CSc1nnc(COc2ccccc2)o1)NC1CCCC1` [MLS000077370], with more than 79.4 µM.

`O=C(O)c1ccc(CSc2n[nH]c(-c3ccco3)n2)cc1` [4-[[5-(furan-2-yl)-1H-1,2,4-triazol-3-yl]sulfanylmethyl]benzoic acid] came in with an IC50 of more than 79.4 µM. Under `Cc1ccc(-c2ccc(C(=O)O)[nH]2)cc1` [5-(4-methylphenyl)-1H-pyrrole-2-carboxylic acid] stands more than 79.4 µM. `CCCc1nnc(SCc2ccc(C(=O)OC)o2)n1N` [5-[[(4-amino-5-propyl-1,2,4-triazol-3-yl)thio]methyl]-2-furancarboxylic acid methyl ester] registered an IC50 of more than 79.4 µM.

Turning to `O=C(CSc1nnc(-c2ccccn2)n1Cc1ccccc1)NC1CCCC1` [2-(4-Benzyl-5-pyridin-2-yl-4H-[1,2,4]triazol-3-ylsulfanyl)-N-cyclopentyl-acetamide], the half-inhibitory concentration (IC50) was more than 79.4 µM.

For `Fc1ccc(Sc2cc(Cl)c(-c3ccccc3)nn2)cc1` [4-chloranyl-6-(4-fluorophenyl)sulfanyl-3-phenyl-pyridazine], the IC50 was more than 79.4 µM.

Compound `O=S(=O)(N1CCOCC1)N1CCN(c2ccccc2F)CC1` [4-[4-(2-fluorophenyl)piperazin-1-yl]sulfonylmorpholine] yielded an IC50 of more than 79.4 µM.

Compound `Cc1cc(C)c(S(=O)(=O)NCc2cn3c(C)csc3n2)cc1C` [2,4,5-trimethyl-N-[(3-methyl-6-imidazo[2,1-b]thiazolyl)methyl]benzenesulfonamide] yielded an IC50 of more than 79.4 µM. On to `CC(=O)Nc1ccc(OCC=C(Cl)Cl)cc1` [MLS000107919], for which the IC50 was more than 79.4 µM. For `CC1=C(C(=O)N2CCC3(CC2)OCCO3)C2(CCC(C)CC2)OC1=O` (stereo not given) [4-(1,4-dioxa-8-azaspiro[4.5]dec-8-ylcarbonyl)-3,8-dimethyl-1-oxaspiro[4.5]dec-3-en-2-one], the IC50 is more than 79.4 µM.

The record behind these values is BindingDB's records for doi:10.7270/Q2KP80J0 (The Scripps Research Institute Molecular Screening Center, 2007).
